Data set [1] concerns C57BL/6J inbred strain female mice. Put plainly: Survival after 8 Gy whole body γ-irradiation, oral 200 mg/kg at varying time points before (Example 6). The data set is classed as in vivo. To be noted: for No. of animals surviving at 20 days post-irradiation: 10 animals; for Death rate (%): 20 days. The procedure:
β-lapachone is prepared at 10 mg/ml in 40% hydroxypropyl-beta-cyclodextrin (HPBCD).
C57BL/6J inbred strain female mice (4-5 weeks old) are used. Animals are maintained in a climate-controlled animal facility.
β-lapachone (200 mg/kg body weight) is orally administered to animals at either 0.5 hour, 1 hour, 2 hours, 4 hours or 6 hours before irradiation.
Whole body irradiation of animals with 8 Gy of γ-rays is carried out in air at room temperature in a gamma chamber (Gammacell 40 Exactor), at a dose-rate of 1.05 Gy/min. This radiation dose is within the range of equivalent human exposures predicted in many scenarios of radiologic or nuclear terrorist attack. […]
Group III: β-lapachone (200 mg/kg body weight) is orally administered to mice 6 hours before radiation.
Group IV: β-lapachone (200 mg/kg body weight) is orally administered to mice 4 hours before radiation.
Group V: β-lapachone (200 mg/kg body weight) is orally administered to mice 2 hours before radiation.
Group VI: β-lapachone (200 mg/kg body weight) is orally administered to mice 1 hour before radiation.
Group VII: β-lapachone (200 mg/kg body weight) is orally administered to mice 0.5 hour before radiation.
Animals are irradiated with 8 Gy at 1.05 Gy/min dose-rate. After irradiation mice are returned to their cage and observed on a regular basis. Exposure to γ-rays causes lethality in animals. Importantly, treatment with β-lapachone, especially at a level of 200 mg/kg orally at one hour prior to irradiation, diminishes the death rate.

The next data set concerns dogs. To be noted: p.o. daily for one month; cited from earlier work.
Setting [2] is: 200 mg/kg p.o. 0.5 hr before Radiation 8 Gy.
The mark [3] stands for this setting: 200 mg/kg p.o. 1 hr before Radiation 8 Gy.
Setting [4] is: 200 mg/kg p.o. 2 hr before Radiation 8 Gy.
Setting [5] is: 200 mg/kg p.o. 4 hr before Radiation 8 Gy.
Where [6] appears, read: 200 mg/kg p.o. 6 hr before Radiation 8 Gy.

The values below come from patent publication US7649013B2, “Methods of protecting against radiation injury” (priority 2003, dated 2010).

Turning to `CC1(C)CCC2=C(O1)c1ccccc1C(=O)C2=O` [β-lapachone, 3,4-dihydro-2,2-dimethyl-2H-naphtho[1,2-b]pyran-5,6-dione], the “Median survival time” value in data set [1] (setting [2]) is listed as 10 days; in data set [1] (setting [3]), 18 days; in data set [1] (setting [4]), 10 days; in data set [1] (setting [5]), 14 days; in data set [1] (setting [6]), 18 days. For the same compound, the “No. of animals surviving at 20 days post-irradiation” value in data set [1] (setting [2]) was 0; in data set [1] (setting [3]), 3; in data set [1] (setting [4]), 0; in data set [1] (setting [5]) it was 0; in data set [1] (setting [6]), 1. For the same compound, the “Death rate (%)” value worked out at 100% in data set [1] (setting [2]); 70% in data set [1] (setting [3]); 100% in data set [1] (setting [4]); 100% in data set [1] (setting [5]); 90% in data set [1] (setting [6]). Further, in data set [1] (200 mg/kg p.o. 1 hour prior to 8 Gy), the “Survival of the treated mice at day 50 post irradiation (FIG. 7)” value was “more than 30%”. The Maximum tolerated dose in the data set with dogs was 100 mg/kg.
